In patent publication US7396817B2, “Biologically active peptides comprising Isoleucyl-valyl-threonyl-asparaginyl-threonyl-threonine (IVTNTT)” (CMS Peptides Patent Holding Company Limited, priority 2003, dated 2008):
Marks after values point to notes of the source that are not given here. No end group written: not given here.

Legend:
HBeAg = settings: at 400 μg/ml, day 8, 2.2.15 cell supernatant
Experimental: (§1) a. Inhibitory effect of CMS017 on HBsAg and HBeAg at maximum non-toxic concentration in vitro 2.2.15 cells, growing at logarithmic phase, were harvested and re-suspended in MEM culture medium (containing 10% calf serum, […], and 100 U/ml streptomycin) as a 2×10^6/ml cell suspension. The suspension was inoculated into a 24-well cell culture plate with 1.5 ml per well, and incubated at 37° C., 5% CO2 for 48 hours. The test substance CMS017 was diluted and added to the 2.2.15 cultures to final concentrations of 0, 50, 100, 200, 400, 800 μg/ml, with 3 parallel samples per concentration. The cells were then incubated at 37° C., 5% CO2. The supernatant was refreshed on days 3 and 6. The cytotoxicity of CMS017 on 2.2.15 cell cultures was then observed with MTT staining on day 8, and the maximum non-toxic concentration of CMS017 was determined.
(§2) The preparation and incubation of cell suspensions were repeated as above with the determined maximum non-toxic concentration of CMS017, and with parallel negative and positive controls (lamivudine with the same concentration as CMS017 was used as the positive control). On the 8th day, the titers of HBsAg and HBeAg in the cell culture supernatants were determined by ELISA^[1,2], using conditions described by the kit supplier. The inhibition percentage of each test substance was calculated as shown below. Inhibitory percentage (%)=(blank control−sample)/blank control×100 Cell survival percentage (%)=sample (A595−A650)/blank control (A595−A650)×100

HBsAg = settings: at 400 μg/ml, day 8, 2.2.15 cell supernatant
Experimental: as §1, §2

hepG 2 2.2.15 cell line = assay: Cytotoxicity of CMS017 on 2.2.15 cell cultures, MTT staining (maximum non-toxic concentration); format: cell-based; settings: 2.2.15 cells, MTT staining on day 8
Experimental: as §1

HBV-DNA = assay: Inhibition of supernatant HBV-DNA in 2.2.15 cells (fluorescent quantitative PCR); settings: for IC50 (HBV-DNA): 2.2.15 cell supernatant; for IC50 (HBV-DNA) / inhibitory percentage for supernatant HBV-DNA: day 8; for inhibitory percentage for supernatant HBV-DNA: at the concentration of 160 μg/ml
Experimental: (§3) Cell suspensions were prepared and incubated as described in Method 1 above. […] The culture media, with added test substance, were exchanged on days 3 and 6. On the 8th day, the supernatants of the cell cultures were harvested for the determination of HBV-DNA concentrations by fluorescent quantitative PCR^[3,4], using the method described by the kit supplier. The cultured cells were taken for analysis of the cytotoxicity of each test substance. The inhibitory percentage of the drug was calculated in the following manner: Inhibitory percentage (%)=(blank control−sample)/blank control×100 Cell survival percentage (%)=sample (A595−A650)/blank control (A595−A650)×100
(§4) TC50 was defined as the test substance concentration at which the percentage of surviving cells in the test group is 50% of that of the control group. IC50 was the test substance concentration at which the percentage of reduction of HBV-DNA concentration is 50% compared to control. These were determined by plotting the corresponding percentage against the test substance concentrations. The selection index (SI) was calculated as TC50/IC50. The bigger the value of SI, the higher the inhibition activity of test substance is and the less cytotoxic it is.

[1] = Cytotoxicity (cell survival, TC50) in the HBV-DNA experiment; format: cell-based; settings: human, HepG2 2.2.15 cells, day 8, concentration at which cell survival is 50% of control
Experimental: as §3, §4

[2] = test system: T lymphocyte transformation; assay: ConA-induced T lymphocyte transformation of spleen cells from treated mice (MTT); format: in vivo, BALB/c mice; settings: for stimulation index (X ± SD): BALB/c mice, spleen cells + ConA
Experimental: The day after the last test substance administration, the mice were sacrificed by cervical dislocation. The spleen was isolated aseptically and manually dispersed in cold D-Hank's solution using an injection needle. The dispersed cell suspension was further sieved through a 100 gauge 150 μm diameter stainless steel sieve. After centrifugation at 200 g for 10 minutes, the supernatant was discarded. […] The suspended cells were collected by centrifugation at 150 g for 10 minutes. […] The cells were then pelleted by centrifugation at 150 g for 10 minutes. […] The incubation was continued for 4 hours.

Compound | Inhibition ratio of HBeAg (HBeAg) [%*] | Inhibition ratio of HBsAg (HBsAg) [%*] | maximum non-toxic concentration (hepG 2 2.2.15 cell line) [µg/mL] | IC50 (HBV-DNA) (HBV-DNA) [µg/mL] | SI (selection index, TC50/IC50) (HBV-DNA) | inhibitory percentage for supernatant HBV-DNA (HBV-DNA) | CC50 at 192 h [1] [µg/mL] | stimulation index (X ± SD) ([2]; 50 μg/kg/day i.p. for 28 days) | effect on T lymphocyte transformation (in words) ([2]; 50 μg/kg/day, compared with the saline control group (P<0.05)) | stimulation index (X ± SD) ([2]; 200 μg/kg/day i.p. for 28 days)
Nc1ccn([C@@H]2CS[C@H](CO)O2)c(=O)n1 [Lamivudine, lamivudine, reference compound] | 35.4 | 29.6 | – | – | – | – | – | – | – | –
IVTNTT [CMS017, L-Isoleucyl-L-valyl-L-threonyl-L-asparaginyl-L-threonyl-L-threonine] | 62.2 | 68.6 | 400 | 2.3 | 577.7 | 90.8% | 1330 | 2.82 ± 0.41 | enhance T lymphocyte transformation | 2.65 ± 0.51
vidarabine monophosphate [Ara-AMP, reference compound] | – | – | – | 11.4 | 5.6 | 89.1%* | – | – | – | –
